Here are results for 17 compounds from ChEMBL document CHEMBL5344420, “Flexibility in the bridge of chalcone derivatives is important for the inhibition of cellular growth” (Bioorg Med Chem Lett, 2023).

SMILES strings stand for the structures. Where only a bound is given, the exact number is not on record here.

This assay concerns A549. The experiment in a line: Antiproliferative activity against human A549 cells assessed as cell growth inhibition measured after 48 hrs by CellTiter Aqueous One Solution MTS assay. The following applies: A549, 48 h. It is filed as functional, cell-based. A general note: Tetrazolium dyes change colour on reduction, which living cells bring about.
As a reminder, the IC50 is the point on the concentration scale where inhibition reaches its midpoint. On to `O=C1/C(=C/c2ccc(O)cc2)CCc2ccccc21`, for which the IC50 was greater than 30 µM.
`COc1ccc(/C=C2\CCc3ccccc3C2=O)cc1`: the IC50 was greater than 30 µM.
In the case of `Cc1ccc(/C=C2\Cc3ccccc3C2=O)cc1`, the IC50 is greater than 30 µM.
On to `O=C1/C(=C/c2ccccc2)Cc2ccccc21`, for which the IC50 is greater than 30 µM.
In the case of `O=C1/C(=C/c2ccccc2)CCc2ccccc21` it was greater than 30 µM; in that of `O=C1/C(=C/c2ccc(F)cc2)CCc2ccccc21`, greater than 30 µM; in that of `Cc1ccc(/C=C2\CCc3ccccc3C2=O)cc1`, greater than 30 µM.
In the case of `O=C1/C(=C/c2ccc(F)cc2)Cc2ccccc21` it was greater than 30 µM.
On to `COc1ccc(/C=C2\Cc3ccccc3C2=O)cc1`, for which the IC50 was greater than 30 µM.
Consider `Cc1ccc(/C=C/C(=O)c2ccccc2)cc1`, for which the IC50 is 16.8 µM.
Regarding `O=C1/C(=C/c2ccc(OC(F)(F)F)cc2)Cc2ccccc21`, the half-maximal inhibitory concentration (IC50) is greater than 30 µM.
In the case of `O=C(/C=C/c1ccc(OC(F)(F)F)cc1)c1ccccc1`, the half-maximal inhibitory concentration (IC50) amounted to 5.35 µM.
In the case of `O=C1/C(=C/c2ccc(O)cc2)Cc2ccccc21` it was greater than 30 µM; in that of `O=C1/C(=C/c2ccc(OC(F)(F)F)cc2)CCc2ccccc21`, greater than 30 µM; in that of `O=C(/C=C/c1ccc(O)cc1)c1ccccc1` [4-HYDROXYCHALCONE], 26.6 µM.
For `COc1ccc(/C=C/C(=O)c2ccccc2)cc1` [4-METHOXY CHALCONE], the IC50 came out at 5.2 µM.
In the case of `O=C(/C=C/c1ccccc1)c1ccccc1` [CHALCONE], the IC50 was 12.2 µM.
